This note sets out measurements from patent publication US9593305B2, “Differentiation of pluripotent stem cells” (Janssen Biotech, Inc., priority 2008, dated 2017).

The test system of this assay is H1 human embryonic stem cells. Briefly: Primary screening: definitive endoderm differentiation in the absence of activin A, cell number and SOX17 (Example 3). The settings on record: for Cell Number, % of positive control / Sox17 Intensity % of positive control: Table 2 hit subset of primary screening, no activin A; for Cell Number, % of positive control / Sox17 Intensity % of positive control / SOX17 expression in the absence of activin A: 2.5 μM; for Cell Number: % of positive control / Sox17 Expression: % of positive control / Sox17 Expression: Average Total Intensity / Cell Number: Average Total Cell Number: 2.5 μM compound, 20 ng/ml Wnt3a days 1-2, no activin A, four-day assay; for Cell Number: Average Total Cell Number: positive control 100 ng/ml activin A + Wnt3a; for SOX17 expression in the absence of activin A: primary screening. Format: cell-based. The procedure:
Briefly, clusters of H1 human embryonic stem cells were grown on reduced growth factor […]™ (Invitrogen; Cat #1356231)-coated tissue culture plastic. Cells were passaged using collagenase (Invitrogen; Cat #17104-019) treatment and gentle scraping, washed to remove residual enzyme, and plated with even dispersal at a ratio of 1:1 (surface area) on reduced growth factor […]™-coated 96-well black plates (Packard ViewPlates; PerkinElmer; Cat #6005182) using volumes of 100 μl/well. Cells were allowed to attach as clusters and then recover log phase growth over a 1 to 3 day period, feeding daily with MEF conditioned medium supplemented with 8 ng/ml bFGF (R&D Systems; Cat #233-FB). Plates were maintained at 37° C., 5% CO2 in a humidified box throughout the duration of assay.
The compounds tested were made available as 5 mM stocks in 96-well plate format, solubilized in 100% DMSO (Sigma; Cat #D2650) and stored at −80° C. The library compounds were further diluted to an intermediate concentration of 0.2 mM in 50 mM HEPES (Invitrogen; Cat #15630-080), 20% DMSO and stored at 4° C. Test conditions were performed in triplicate, feeding on alternate days over a four-day assay period. Primary screening assays were initiated by aspirating culture medium from each well followed by three washes in PBS (Invitrogen; Cat #14190) to remove residual growth factors and serum. On the first day of assay, test volumes of 200 μl per well were added back containing DMEM:F12 base medium (Invitrogen; Cat #11330-032) supplemented with 0.5% FCS (HyClone; Cat #SH30070.03) and 20 ng/ml Wnt3a (R&D Systems; Cat #1324-WN) plus 2.5 μM test compound. On the third day of assay, test volumes of 200 μl per well were added back containing DMEM:F12 base medium supplemented with 2% FCS plus 2.5 μM test compound, without Wnt3a. Positive control samples contained the same base medium supplemented with FCS, substituting 100 ng/ml recombinant human activin A (PeproTech; Cat #120-14) for the test compound throughout the four-day assay along with Wnt3a (20 ng/ml) added only on days 1 and 2. Negative control samples contained DMEM:F12 base medium supplemented with FCS, adding Wnt3a on days 1 and 2 but omitting activin A.
At the conclusion of four-days of culture, assay plates were washed twice with PBS (Invitrogen; Cat #14190), fixed with 4% paraformaldehyde (Alexis Biochemical; Cat #ALX-350-011) at room temperature for 20 minutes, then washed three times with PBS and permeabilized with 0.5% Triton X-100 (Sigma; Cat #T8760-2) for 20 minutes at room temperature. Cells were washed again three times with PBS and blocked with 4% chicken serum (Invitrogen; Cat #16110082) in PBS for 30 minutes at room temperature. Primary antibody (goat anti-human SOX17; R&D Systems; Cat #AF1924) was diluted 1:100 in 4% chicken serum and added to each well for one hour at room temperature. Alexa Fluor 488 conjugated secondary antibody (chicken anti-goat IgG; Molecular Probes; Cat #AZ1467) was diluted 1:200 in PBS and added to each sample well after washing three times with PBS. To counter stain nuclei, 4 μg/ml Hoechst 33342 (Invitrogen; Cat #H3570) was added for ten minutes at room temperature. Plates were washed once with PBS and left in 100 μl/well PBS for imaging.
Imaging was performed using an IN Cell Analyzer 1000 (GE Healthcare) utilizing the 51008bs dichroic for cells stained with Hoechst 33342 and Alexa Fluor 488. Exposure times were optimized from positive control wells and from untreated negative control wells stained with secondary antibody alone. Images from 15 fields per well were acquired to compensate for any cell loss during the bioassay and subsequent staining procedures. Measurements for total cell number and total SOX17 intensity were obtained from each well using IN Cell Developer Toolbox 1.7 (GE Healthcare) software. Segmentation for the nuclei was determined based on gray-scale levels (baseline range 100-300) and nuclear size. […]

`O=C1NCCCc2cncc(c2)-c2ncnc(n2)Nc2cccc(c2)CN2CCCC1C2` (stereo not shown) [Compound 17, 3,5,7,14,20,26,31-Heptaazapentacyclo[22.3.1.1-2,6˜1˜8,12˜1˜14,18˜]hentriaconta-1(28), 2(31), 3,5,8(30), 9,11,24,26-nonaen-19-one]: the “Cell Number, % of positive control” value is on record as 133.8 % of positive control and the “Sox17 Intensity % of positive control” value is given as −0.7 % of positive control.

Take `CN1CCC(=O)NCCCNc2cccc(c2)-c2ncnc(n2)Nc2cccc(c2)C1` [Compound 21, 14-Methyl-3,5,7,14,18,22,29-heptaazatetracyclo[21.3.1.1˜2,6˜0.1˜8,12˜]nonacosa-1(27), 2(29), 3,5,8(28), 9,11,23,25-nonaen-17-one]: the “Cell Number: % of positive control” value was 44.44 % of positive control, the “Sox17 Expression: % of positive control” value is listed as −0.61 % of positive control, the “Sox17 Expression: Average Total Intensity” value is listed as −1.96E+06 and the “Cell Number: Average Total Cell Number” value came out at 4719.

On to `O=C1NCCCc2cncc(c2)-c2ncnc(n2)Nc2cccc(c2)CN2CCC1CC2` [Compound 22, 1,8,10,12,16,22,30-Heptaazapentacyclo[22.2.2.1-3,7˜0.1˜9,13˜1-14,18˜]hentriaconta-3(31), 4,6,9(30), 10,12,14(29), 15,17-nonaen-23-one], for which the “Cell Number, % of positive control” value is given as 132.7 % of positive control; the “Sox17 Intensity % of positive control” value is given as 72.4 % of positive control; the “SOX17 expression in the absence of activin A” value is reported as “SOX17 expression was induced”.

As for `O=C1CCN2CCN(CC2)Cc2cccc(c2)Nc2ncnc(n2)-c2cncc(c2)CCCN1` [Compound 23, 1,8,10,12,16,22,26,32-Octaazapentacyclo[24.2.2.1-3,7˜0.1˜9,13˜0.1˜14,18˜]tritriaconta-3(33), 4,6,9(32), 10,12,14(31), 15,17-nonaen-23-one], the “Cell Number: % of positive control” value was 24.13 % of positive control, the “Sox17 Expression: % of positive control” value was −0.48 % of positive control, the “Sox17 Expression: Average Total Intensity” value is on record as −1.56E+06 and the “Cell Number: Average Total Cell Number” value was 2563.

`CCN1CC(=O)NCCCc2cc(ccc2F)-c2ncnc(n2)Nc2cc(Cl)cc(c2)C1` [Compound 25, 10-Chloro-14-ethyl-22-fluoro-3,5,7,14,17,27-hexaazatetracyclo[19.3.1.1˜2,6˜0.1˜8,12˜]heptacosa-1(25), 2(27), 3,5,8(26), 9,11,21,23-nonaen-16-one]: the “Cell Number: % of positive control” value was 146.17 % of positive control, the “Sox17 Expression: % of positive control” value is recorded as 20.32 % of positive control, the “Sox17 Expression: Average Total Intensity” value was 4.03E+07 and the “Cell Number: Average Total Cell Number” value is given as 4151.

Take `CCN1CCCc2cccc(c2)-c2ncnc(n2)Nc2cccc(c2)CCNC(=O)C1` [Compound 29, 18-Ethyl-3,5,7,15,18,28-hexaazatetracyclo[20.3.1.1˜2,6˜0.1˜8,12˜]octacosa-1(26), 2(28), 3,5,8(27), 9,11,22,24-nonaen-16-one]: the “Cell Number, % of positive control” value is reported as 136.0 % of positive control and the “Sox17 Intensity % of positive control” value is on record as 34.5 % of positive control.

For `O=C1CCN2CCN(CC2)Cc2cc(Cl)cc(c2)Nc2ncnc(n2)-c2cncc(c2)CCCN1` [Compound 34, 5-Chloro-1,8,10,12,16,22,26,32-octaazapentacyclo[24.2.2.1˜3.7˜0.1˜9,13˜0.1˜14.18˜]tritriaconta-3(33), 4,6,9(32), 10,12,14(31), 15,17-nonaen-23-one], the “Cell Number, % of positive control” value is given as 114.8 % of positive control and the “Sox17 Intensity % of positive control” value is given as 44.5 % of positive control.

`CCN1CC(=O)NCCCc2cncc(c2)-c2ncnc(n2)Nc2cc(Cl)cc(c2)C1` [Compound 35, 10-Chloro-14-ethyl-3,5,7,14,17,23,27-heptaazatetracyclo[19.3.1.1˜2,6˜0.1˜8,12]Theptacosa-1(25), 2(27), 3,5,8(26), 9,11,21,23-nonaen-16-one]: the “Cell Number, % of positive control” value is reported as 158.7 % of positive control; the “Sox17 Intensity % of positive control” value is given as 86.8 % of positive control; the “SOX17 expression in the absence of activin A” value is reported as “SOX17 expression was induced”.

On to `O=C1NCCCc2cncc(c2)-c2ncnc(n2)Nc2cc(Cl)cc(c2)CN2CCCC1C2` (stereo not shown) [Compound 37, 10-Chloro-3,5,7,14,20,26,31-heptaazapentacyclo[22.3.1.1˜2,6˜0.1˜8,12˜0.1˜14,18˜]hentriaconta-1(28), 2(31), 3,5,8(30), 9,11,24,26-nonaen-19-one], for which the “Cell Number, % of positive control” value is given as 129.3 % of positive control and the “Sox17 Intensity % of positive control” value was 29.1 % of positive control.

Turning to `CN1CCC(=O)NCCCNc2ncccc2-c2ncnc(n2)Nc2cccc(c2)C1` [Compound 39, 9-Methyl-2,3,4,5,7,8,9,10-octahydro-16H-17,21-(azeno)-11,15-(metheno)pyrido[3,2-g][1,3,5,9,13,17]hexaazacyclotricosin-6(1H)-one], the “Cell Number, % of positive control” value is listed as 147.0 % of positive control and the “Sox17 Intensity % of positive control” value is on record as 35.2 % of positive control.
